Legend:
[1] = xn = mol fraction of the nth substance listed; conditions: x2 = 0; for surface tension liquid-gas: Maximal bubble pressure; for mass density: 100 kPa, Liquid, Vibrating tube method
[2] = Maximal bubble pressure

CC(C)O [propan-2-ol] + CCCC[n+]1ccccc1.N#C[N-]C#N
[1]
Conditions | mass density [kg/m3] | surface tension liquid-gas [mN/m]
288.15 K | 789.41 | 22.2
293.15 K | 785.29 | 21.7
298.15 K | 781.08 | 21.2
303.15 K | 776.81 | 20.8
308.15 K | 772.46 | 20.3
313.15 K | 768.02 | 19.9
318.15 K | 763.48 | 19.4

CCCO [propan-1-ol] + CCCC[n+]1ccccc1.N#C[N-]C#N
[1]
Conditions | mass density [kg/m3] | surface tension liquid-gas [mN/m]
288.15 K | 807.55 | 24.5
293.15 K | 803.59 | 23.9
298.15 K | 799.58 | 23.4
303.15 K | 795.55 | 23
308.15 K | 791.47 | 22.5
313.15 K | 787.36 | 22.1
318.15 K | 783.2 | 21.6

CCCO [propan-1-ol]
[2]
Conditions | surface tension liquid-gas [mN/m]
288.15 K | 24.5
293.15 K | 23.9
298.15 K | 23.4
303.15 K | 23
308.15 K | 22.5
313.15 K | 22.1
318.15 K | 21.6

CC(C)O [propan-2-ol]
[2]
Conditions | surface tension liquid-gas [mN/m]
288.15 K | 22.2
293.15 K | 21.7
298.15 K | 21.2
303.15 K | 20.8
308.15 K | 20.3
313.15 K | 19.9
318.15 K | 19.4

CCO [ethanol] + CCCC[n+]1ccccc1.N#C[N-]C#N
[1]
Conditions | mass density [kg/m3] | surface tension liquid-gas [mN/m]
288.15 K | 793.91 | 23.3
293.15 K | 789.66 | 22.7
298.15 K | 785.73 | 22.2
303.15 K | 781.05 | 21.6
308.15 K | 776.7 | 21.1
313.15 K | 772.31 | 20.7
318.15 K | 767.88 | 20

CCO [ethanol]
[2]
Conditions | surface tension liquid-gas [mN/m]
288.15 K | 23.3
293.15 K | 22.7
298.15 K | 22.2
303.15 K | 21.6
308.15 K | 21.1
313.15 K | 20.7
318.15 K | 20

— the NIST ThermoML archive (doi:10.1016/j.jct.2018.08.004)
